Data on 28 compounds can be found in patent US7964628B2, “Fibrinogen receptor antagonists and their use” (Piramal Life Sciences Limited, priority 2003, dated 2011).

A word on the melting point: it is the temperature of the solid-liquid transition.

Counter-ions that a name gives are not always drawn. Where only a bound is given, the exact number is not on record here.

In the case of `CCOC(=O)COC1CCN(C(=O)CCN2Cc3cc(C(=N)NO)ccc3C2=O)CC1` [Example 69, (1-{3-[5-(N-Hydroxycarbamimidoyl)-1-oxo-1,3-dihydro-isoindol-2-yl]-propionyl}-piperidin-4-yloxy)-acetic acid ethyl ester], the melting point was 151 to 152 °C.

`N=C(N)c1ccc2c(c1)CN(CC(=O)N1CCC(OCC(=O)O)CC1)C2=O` (as salt: hydrochloride) (hydrate or solvate) [Example 73, (1-{2-[5-Carbamimidoyl-1-oxo-1,3-dihydro-isoindol-2-yl]-acetyl}-piperidin-4-yloxy)-acetic acid]: the melting point lay within 135 to 136 °C.

Turning to `N=C(N)c1ccc2c(c1)CN(CC(=O)c1ccc(OCC(=O)O)cc1)C2=O` (as salt: hydrochloride) (hydrate or solvate) [Example 17, (4-{2-[5-Carbamimidoyl-1-oxo-1,3-dihydro-isoindol-2-yl]-acetyl}-phenoxy)-acetic acid], the melting point is > 250 °C (dec.).

With `N=C(N)c1ccc2c(c1)CN(CC(=O)c1ccc(OCC(=O)OCc3ccccc3)cc1)C2=O` (as salt: salt) (hydrate or solvate) [Example 16, (4-{2-[5-Carbamimidoyl-1-oxo-1,3-dihydro-isoindol-2-yl]-acetyl}-phenoxy)-acetic acid benzyl ester], the melting point was 190 °C (dec.).

Take `CCOC(=O)COc1ccc(C(=O)CN2Cc3cc(C(=N)NO)ccc3C2=O)c(OCC)c1` [Example 75, (3-Ethoxy-4-{2-[5-(N-hydroxycarbamimidoyl)-1-oxo-1,3-dihydro-isoindol-2-yl]-acetyl}-phenoxy)-acetic acid ethyl ester]: the melting point is 192 to 194 °C.

As to `CCOC(=O)COc1ccc(C(=O)CN2Cc3cc(C(=N)NC(=O)OCC(C)C)ccc3C2=O)cc1N(CC(=O)OCC)S(C)(=O)=O` (hydrate or solvate) [Example 39, (2-{Ethoxycarbonylmethyl-methanesulfonyl-amino}-4-{2-[5-(imino-isobutoxycarbonylamino-methyl)-1-oxo-1,3-dihydro-isoindol-2-yl]-acetyl}-phenoxy)-acetic acid ethyl ester], the melting point lay within 80 to 82 °C.

For the compound `CCN(CC)C(=O)COc1ccc(C(=O)CN2Cc3cc(C(=N)N)ccc3C2=O)cc1` (as salt: salt) [Example 25, 2-(4-{2-[5-Carbamimidoyl-1-oxo-1,3-dihydro-isoindol-2-yl]-acetyl}-phenoxy)-N,N-diethyl-acetamide], the melting point was 194 to 195 °C.

For the compound `CC(C)COC(=O)COc1ccc(C(=O)CN2Cc3cc(C(=N)NC(=O)OCC(C)C)ccc3C2=O)cc1` (hydrate or solvate) [Example 12, (4-{2-[5-(Imino-isobutoxycarbonylamino-methyl)-1-oxo-1,3-dihydro-isoindol-2-yl]-acetyl}-phenoxy)-acetic acid isobutyl ester], the melting point was in the range of 140 to 141 °C.

`CC(C)OC(=O)COc1ccc(C(=O)CN2Cc3cc(C(=N)N)ccc3C2=O)cc1` (hydrate or solvate) [Example 5, (4-{2-[5-Carbamimidoyl-1-oxo-1,3-dihydro-isoindol-2-yl]-acetyl}-phenoxy)-acetic acid isopropyl ester]: the melting point stood at 162 °C.

For the compound `CCOC(=O)COc1ccc(C(=O)CN2Cc3cc(C(=N)NO)ccc3C2=O)c(O)c1OCC(=O)OCC` [Example 64, (2-Ethoxycarbonylmethoxy-3-hydroxy-4-{2-[5-(N-hydroxycarbamimidoyl)-1-oxo-1,3-dihydro-isoindol-2-yl]-acetyl}-phenoxy)-acetic acid ethyl ester], the melting point fell in the range of 153 to 155 °C.

`CCOC(=O)COc1ccc(C(=O)CN2Cc3cc(C(=N)N)ccc3C2=O)cc1SCC` (as salt: salt) (hydrate or solvate) [Example 33, (4-{2-[5-Carbamimidoyl-1-oxo-1,3-dihydro-isoindol-2-yl]-acetyl}-2-ethylsulfanyl-phenoxy)-acetic acid ethyl ester] showed a melting point of 185 to 186 °C.

`Cc1c(OCC(=O)OCc2ccccc2)ccc(C(=O)CN2Cc3cc(C(=N)NO)ccc3C2=O)c1O` (hydrate or solvate) [Example 56, (3-Hydroxy-4-{2-[5-(N-hydroxycarbamimidoyl)-1-oxo-1,3-dihydro-isoindol-2-yl]-acetyl}-2-methyl-phenoxy)-acetic acid benzyl ester]: the melting point was 200 °C.

As for `CCOC(=O)COc1cc(O)c(C(=O)CN2Cc3cc(C(=N)NO)ccc3C2=O)cc1Cl` (hydrate or solvate) [Example 53, (2-Chloro-5-hydroxy-4-{2-[5-(N-hydroxycarbamimidoyl)-1-oxo-1,3-dihydro-isoindol-2-yl]-acetyl}-phenoxy)-acetic acid ethyl ester], the melting point was in the range of 227 to 228 °C.

`CC(C)OC(=O)COc1ccc(C(=O)CN2Cc3cc(C(=N)NC(=O)OCc4ccccc4)ccc3C2=O)cc1` (hydrate or solvate) [Example 8, (4-{2-[5-(Benzyloxycarbonylamino-imino-methyl)-1-oxo-1,3-dihydro-isoindol-2-yl]-acetyl}-phenoxy)-acetic acid isopropyl ester]: the melting point is 156 to 158 °C.

Consider `COC(=O)COc1ccc(C(=O)CN2Cc3cc(C(=N)NO)ccc3C2=O)cc1` (hydrate or solvate) [Example 2, (4-{2-[5-(N-Hydroxycarbamimidoyl)-1-oxo-1,3-dihydro-isoindol-2-yl]-acetyl}-phenoxy)-acetic acid methyl ester], for which the melting point was in the range of 175 to 176 °C.

In turn, `CCOC(=O)COc1ccc(C(=O)CN2Cc3cc(C(=N)NO)ccc3C2=O)c(O)c1Cl` (hydrate or solvate) [Example 54, (2-Chloro-3-hydroxy-4-{2-[5-(N-hydroxycarbamimidoyl)-1-oxo-1,3-dihydro-isoindol-2-yl]-acetyl}-phenoxy)-acetic acid ethyl ester] registered a melting point of 214 to 215 °C.

For `CCOC(=O)COc1ccc(C(=O)CN2Cc3cc(C(=N)NO)ccc3C2=O)cc1OCC(=O)OCC` [Example 21, (2-Ethoxycarbonylmethoxy-4-{2-[5-(N-hydroxycarbamimidoyl)-1-oxo-1,3-dihydro-isoindol-2-yl]-acetyl}-phenoxy)-acetic acid ethyl ester], the melting point lay in the range of 163 to 164 °C.

`CCOC(=O)COc1ccc(C(=O)CN2Cc3cc(C(=N)NO)ccc3C2=O)cc1S(=O)(=O)CC` [Example 36, (2-Ethanesulfonyl-4-{2-[5-(N-hydroxycarbamimidoyl)-1-oxo-1,3-dihydro-isoindol-2-yl]-acetyl}-phenoxy)-acetic acid ethyl ester]: the melting point was in the range of 196 to 197 °C.

Compound `CCOC(=O)COc1cc(O)c(C(=O)CN2Cc3cc(C(=N)NO)ccc3C2=O)c(OC)c1` [Example 62, (3-Hydroxy-4-{2-[5-(N-hydroxycarbamimidoyl)-1-oxo-1,3-dihydro-isoindol-2-yl]-acetyl}-5-methoxy-phenoxy)-acetic acid ethyl ester] came in with a melting point of 209 to 210 °C.

As for `CCOC(=O)COC1CCN(C(=O)CN2Cc3cc(C(=N)N)ccc3C2=O)CC1` (as salt: salt) (hydrate or solvate) [Example 71, (1-{2-[5-Carbamimidoyl-1-oxo-1,3-dihydro-isoindol-2-yl]-acetyl}-piperidin-4-yloxy)-acetic acid ethyl ester], the melting point is 189 to 190 °C.

Regarding `CCOC(=O)C(CCNC(=O)OCc1ccccc1)Oc1ccc(C(=O)CN2Cc3cc(C(=N)N)ccc3C2=O)cc1` (stereo not shown) (as salt: salt) [Example 27, 4-Benzyloxycarbonylamino-2-(4-{2-[5-carbamimidoyl-1-oxo-1,3-dihydro-isoindol-2-yl]-acetyl}-phenoxy)-butyric acid ethyl ester], the melting point lay within 164 to 165 °C.

As for `COC(=O)NC(=N)c1ccc2c(c1)CN(CC(=O)c1ccc(OCC(=O)OCC(C)C)cc1)C2=O` [Example 11, (4-{2-[5-(Imino-methoxycarbonylamino-methyl)-1-oxo-1,3-dihydro-isoindol-2-yl]-acetyl}-phenoxy)-acetic acid isobutyl ester], the melting point lay in the range of 162 to 163 °C.

For the compound `CCOC(=O)COc1ccc(C(=O)CN2Cc3cc(C(=N)N)ccc3C2=O)c(O)c1` (as salt: salt) [Example 41, (4-{2-[5-Carbamimidoyl-1-oxo-1,3-dihydro-isoindol-2-yl]-acetyl}-3-hydroxy-phenoxy)-acetic acid ethyl ester], the melting point lay within 195 to 196 °C.

In turn, `CCOC(=O)COc1ccc(C(=O)CN2Cc3cc(C(=N)NO)ccc3C2=O)cc1` (hydrate or solvate) [Example 4, (4-{2-[5-(N-Hydroxycarbamimidoyl)-1-oxo-1,3-dihydro-isoindol-2-yl]-acetyl}-phenoxy)-acetic acid ethyl ester] returned a melting point of 175 to 178 °C.

With `CCOC(=O)COC1CCN(C(=O)CN2Cc3cc(C(=N)NO)ccc3C2=O)CC1` [Example 68, (1-{2-[5-(N-Hydroxycarbamimidoyl)-1-oxo-1,3-dihydro-isoindol-2-yl]-acetyl}-piperidin-4-yloxy)-acetic acid ethyl ester], the melting point is 204 to 206 °C.

For `CCOC(=O)CN1CCN(C(=O)CN2Cc3cc(C(=N)N)ccc3C2=O)CC1` (as salt: salt) [Example 66, (4-{2-[5-Carbamimidoyl-1-oxo-1,3-dihydro-isoindol-2-yl]-acetyl}-piperazine-1-yl)-acetic acid ethyl ester], the melting point lay in the range of 211 to 212 °C.

The compound `COC(=O)CSc1ccc(C(=O)CN2Cc3cc(C(=N)NO)ccc3C2=O)cc1` [Example 29, (4-{2-[5-(N-Hydroxycarbamimidoyl)-1-oxo-1,3-dihydro-isoindol-2-yl]-acetyl}-phenylsulfanyl)-acetic acid methyl ester] gave a melting point of 193 to 194 °C.

The compound `CCOC(=O)COc1c(SCC)cc(C(=O)CN2Cc3cc(C(=N)NO)ccc3C2=O)cc1SCC` [Example 37, (2,6-Bis-ethylsulfanyl-4-{2-[5-(N-hydroxycarbamimidoyl)-1-oxo-1,3-dihydro-isoindol-2-yl]-acetyl}-phenoxy)-acetic acid ethyl ester] yielded a melting point of 183 to 184 °C.
